The results in this text go back to patent publication US20230147053A1, “FUSED N-HETEROCYCLIC COMPOUNDS AND METHODS OF USE THEREOF” (Araxes Pharma LLC, priority 2017, published 2023).

For the assay, the target named is T1, KRAS G12C 1-169, his-tagged protein, GDP-loaded (Homo sapiens, UniProt P01116, G12C).
T1 construct: KRAS G12C 1-169, his-tagged protein, GDP-loaded
As to the kind of experiment: Biochemical assay: covalent binding (modification) of KRAS G12C measured by mass spectrometry. To be noted: covalent binding to KRAS G12C after a thirty minute incubation period. How it is done: Test compounds were prepared as 10 mM stock solutions in DMSO (Fisher cat #BP-231-100). KRAS G12C 1-169, his-tagged protein, GDP-loaded was diluted to 2 μM or 0.5 μM in buffer (20 mM Hepes, 150 mM NaCl, 1 mM MgCl2). Compounds were tested for activity as follows:
Compounds were diluted to 50× final test concentration in DMSO in 96-well storage plates. Compound stock solutions were vortexed before use and observed carefully for any sign of precipitation. Dilutions were as follow: • For 100 μM final compound concentration, compounds were diluted to 5000 μM (5 μL 10 mM compound stock+5 μL DMSO and mixed well by pipetting. • For 30 μM final compound concentration, compounds were diluted to 1500 μM (3 μL 10 mM compound stock+17 μL DMSO) and mixed well by pipetting. • For 10 μM final compound concentration, compounds were diluted to 500 μM (2 μL 10 mM compound stock+38 μL DMSO) and mixed well by pipetting. 49 μL of the stock protein solution was added to each well of a 96-well PCR plate (Fisher cat #1423027). 1 μl of the diluted 50× compounds were added to appropriate wells in the PCR plate using 12-channel pipettor. Reactions were mixed carefully and thoroughly by pipetting up/down with a 200 μL multi-channel pipettor. The plate was sealed well with aluminum plate seal, and stored in drawer at room temperature for 10 minutes, 30 minutes, 2 hours or 24 hours. 5 μL of 2% formic acid (Fisher cat #A117) in de-ionized H2O was then added to each well followed by mixing with a pipette. The plate was then resealed with aluminum seal and stored on dry ice until analyzed as described below.
The above described assays were analyzed by mass spectrometry according to one of the following two procedures:
The MS instrument is set to positive polarity, 2 GHz resolution, and low mass (1700) mode and allowed to equilibrate for 30 minutes. The instrument is then calibrated, switched to acquisition mode and the appropriate method loaded.
After another 30 minute equilibration time, a blank batch (i.e., buffer) is run to ensure equipment is operating properly. The samples are thawed at 37° C. for 10 minutes, briefly centrifuged, and transfer to the bench top. Wells A1 and H12 are spiked with 1 μL 500 μM internal standard peptide, and the plates centrifuged at 2000×g for 5 minutes. The method is then run and masses of each individual well recorded.
The masses (for which integration data is desired) for each well are pasted into the platemap and exported from the analysis. Masses for the internal standards are exported as well. The data at 50 ppm is extracted for the +19 charge state, and identity of well A1 is assigned using the internal standard spike and integrated. Peak data is exported as a TOF list and the above steps are repeated individually, for the +20, 21, 22, 23, 24, and 25 charge states.
The masses and peak intensities of KRAS G12C protein species were measured using a Dionex RSLCnano system (Thermo Scientific) connected to a Q Exactive Plus mass spectrometer (Thermo Scientific).
[…] of sample was each loaded onto a Aeris™ 3.6 μm WIDEPORE C4 200 A, LC Column 50×2.1 mm column maintained at 40° C. at a flow rate of 600 μL/min with […] (0.1% formic acid in acetonitrile). The liquid chromatography conditions were 20% solvent B for 1 minute, 20% to 60% solvent B for 1.5 minutes, 60% to 90% solvent for 0.5 minute, 90% solvent B for 0.2 minute, 90% to 20% solvent B for 0.2 minute, and then equilibrated for 1.6 minute before the following sample injection. The flow rate was maintained at 600 μL/min throughout the sample analysis.
The mass spectrometer was operated in profile mode at a resolution of 17500, 5 microscans, using 50 msec max injection time and an AGC target of 1×10^6, and a full mass range from 800-1850 m/z was recorded. The HCD trapping gas was optimized for maximum sensitivity for intact proteins. […]

In the case of `C=CC(=O)N1CC(c2ccc3c(c2)CCCN(c2cccc4[nH]ncc24)C3)C1` [Compound 5, 1-(3-(2-(1H-indazol-4-yl)-2,3,4,5-tetrahydro-1H-benzo[c]azepin-7-yl)azetidin-1-yl)prop-2-en-1-one], the Binding % result is “+ (+ indicates binding activity up to 5%)”.

As for `C=CC(=O)N1CC(c2ccc3c(c2)CN(c2cc(O)cc4ccccc24)C3)C1` [Compound 6, 1-(3-(2-(3-hydroxynaphthalen-1-yl)isoindolin-5-yl)azetidin-1-yl)prop-2-en-1-one], the Binding % result is on record as “+++ (+++ indicates binding activity greater than 50%)”.

For the molecule `C=CC(=O)N1CC(c2ccc3c(c2)CN(c2cc(O)cc4ccccc24)C3=O)C1` [Compound 8, 5-(1-acryloylazetidin-3-yl)-2-(3-hydroxynaphthalen-1-yl)isoindolin-1-one], the Binding % result is recorded as “+++ (+++ indicates binding activity greater than 50%)”.

With `C=CC(=O)N1CC(c2ccc3c(c2)CN(c2c(C)ccc4[nH]ncc24)C3=O)C1` [Compound 9, 5-(1-acryloylazetidin-3-yl)-2-(5-methyl-1H-indazol-4-yl)isoindolin-1-one], the Binding % entry is given as “+ (+ indicates binding activity up to 5%)”.

Consider `C=CC(=O)N1CC(c2ccc3c(c2)C(=O)N(c2cc(O)cc4ccccc24)C3)C1` [Compound 10, 6-(1-acryloylazetidin-3-yl)-2-(3-hydroxynaphthalen-1-yl)isoindolin-1-one], for which the Binding % result is given as “++ (++ indicates binding activity from 5% to 50%)”.

Consider `C=CC(=O)N1CC(c2ccc3c(c2)C(=O)N(c2c(C)ccc4[nH]ncc24)C3)C1` [Compound 11, 6-(1-acryloylazetidin-3-yl)-2-(5-methyl-1H-indazol-4-yl)isoindolin-1-one], for which the Binding % result is listed as “+ (+ indicates binding activity up to 5%)”.

On to `C=CC(=O)N1CC(c2ccc3[nH]c(-c4cc(O)cc5ccccc45)cc3c2)C1` [Compound 14, 1-(3-(2-(3-hydroxynaphthalen-1-yl)-1H-indol-5-yl)azetidin-1-yl)prop-2-en-1-one], for which the Binding % result is listed as “+++ (+++ indicates binding activity greater than 50%)”.

Consider `C=CC(=O)N1CC(c2ccc3c(=O)n(-c4cc(O)cc5ccccc45)ccc3c2)C1` [Compound 18, 6-(1-acryloylazetidin-3-yl)-2-(3-hydroxynaphthalen-1-yl)isoquinolin-1(2H)-one], for which the Binding % result is “+++ (+++ indicates binding activity greater than 50%)”.

In the case of `C=CC(=O)N1CC(c2ccc3c(=O)n(-c4c(C)ccc5[nH]ncc45)ccc3c2)C1` [Compound 19, 6-(1-acryloylazetidin-3-yl)-2-(5-methyl-1H-indazol-4-yl)isoquinolin-1(2H)-one], the Binding % entry is “+ (+ indicates binding activity up to 5%)”.

Consider `C=CC(=O)N1CC(c2ccc3cn(-c4cc(O)cc5ccccc45)c(=O)cc3c2)C1` [Compound 22, 6-(1-acryloylazetidin-3-yl)-2-(3-hydroxynaphthalen-1-yl)isoquinolin-3(2H)-one], for which the Binding % entry is recorded as “+ (+ indicates binding activity up to 5%)”.

On to `C=CC(=O)N1CC(c2ccc3cn(-c4c(C)ccc5[nH]ncc45)c(=O)cc3c2)C1` [Compound 23, 6-(1-acryloylazetidin-3-yl)-2-(5-methyl-1H-indazol-4-yl)isoquinolin-3(2H)-one], for which the Binding % result is on record as “+ (+ indicates binding activity up to 5%)”.

For `C=CC(=O)N1CC(c2ccc3c(c2)NC(=O)N(c2cc(O)cc4ccccc24)C3)C1` [Compound 24, 7-(1-acryloylazetidin-3-yl)-3-(3-hydroxynaphthalen-1-yl)-3,4-dihydroquinazolin-2(1H)-one], the Binding % result is “+++ (+++ indicates binding activity greater than 50%)”.

For the molecule `C=CC(=O)N1CC(c2ccc3c(c2)NC(=O)N(c2c(C)ccc4[nH]ncc24)C3)C1` [Compound 25, 7-(1-acryloylazetidin-3-yl)-3-(5-methyl-1H-indazol-4-yl)-3,4-dihydroquinazolin-2(1H)-one], the Binding % result is listed as “++ (++ indicates binding activity from 5% to 50%)”.

In the case of `C=CC(=O)N1CC(c2ccc3cc(-c4cc(O)cc5ccccc45)ncc3c2)C1` [Compound 26, 1-(3-(3-(3-hydroxynaphthalen-1-yl)isoquinolin-7-yl)azetidin-1-yl)prop-2-en-1-one], the Binding % entry is recorded as “++ (++ indicates binding activity from 5% to 50%)”.

For `C=CC(=O)N1CCC(c2ccc3c(c2)CCN(c2c(C)ccc4[nH]ncc24)C3=O)C1` (centres unmarked) [Compound 32, 6-(1-acryloylpyrrolidin-3-yl)-2-(5-methyl-1H-indazol-4-yl)-3,4-dihydroisoquinolin-1(2H)-one], the Binding % entry is “+ (+ indicates binding activity up to 5%)”.

Take `C=CC(=O)N1CC(c2ccc3cc(-c4cc(O)cc5ccccc45)[nH]c3c2)C1` [Compound 33, 1-(3-(2-(3-hydroxynaphthalen-1-yl)-1H-indol-6-yl)azetidin-1-yl)prop-2-en-1-one]: the Binding % entry is reported as “++ (++ indicates binding activity from 5% to 50%)”.

Take `C=CC(=O)N1CC(c2ccc3cc(-c4cc(O)cc5ccccc45)n(CC(N)=O)c3c2)C1` [Compound 34, 2-(6-(1-acryloylazetidin-3-yl)-2-(3-hydroxynaphthalen-1-yl)-1H-indol-1-yl)acetamide]: the Binding % result is “+ (+ indicates binding activity up to 5%)”.

Regarding `C=CC(=O)N1CC(c2ccc3cc(-c4c(C)ccc5[nH]ncc45)[nH]c3c2)C1` [Compound 35, 1-(3-(2-(5-methyl-1H-indazol-4-yl)-1H-indol-6-yl)azetidin-1-yl)prop-2-en-1-one], the Binding % entry is on record as “+ (+ indicates binding activity up to 5%)”.

Consider `C=CC(=O)N1CC(c2ccc3c(Nc4cc(O)cc5ccccc45)ncnc3c2)C1` [Compound 36, 1-(3-(4-((3-hydroxynaphthalen-1-yl)amino)quinazolin-7-yl)azetidin-1-yl)prop-2-en-1-one], for which the Binding % entry is “+ (+ indicates binding activity up to 5%)”.

With `C=CC(=O)N1CC(Nc2cccc3c(-c4cc(O)cc5ccccc45)ccnc23)C1` [Compound 37, 1-(3-((4-(3-hydroxynaphthalen-1-yl)quinolin-8-yl)amino)azetidin-1-yl)prop-2-en-1-one], the Binding % entry was “+++ (+++ indicates binding activity greater than 50%)”.

`C=CC(=O)N1CC(c2ccc3c(Nc4c(C)ccc5[nH]ncc45)ncnc3c2)C1` [Compound 38, 1-(3-(4-((5-methyl-1H-indazol-4-yl)amino)quinazolin-7-yl)azetidin-1-yl)prop-2-en-1-one]: the Binding % entry was “+ (+ indicates binding activity up to 5%)”.

Regarding `C=CC(=O)N1CC(NC(=O)c2ccc3c(-c4cc(O)cc5ccccc45)ccnc3c2)C1` [Compound 39, N-(1-acryloylazetidin-3-yl)-4-(3-hydroxynaphthalen-1-yl)quinoline-7-carboxamide], the Binding % result is given as “++ (++ indicates binding activity from 5% to 50%)”.

As to `C=CC(=O)N1CC(c2ccc3c(c2)cc(-c2cc(O)cc4ccccc24)n3CC(N)=O)C1` [Compound 40, 2-(5-(1-acryloylazetidin-3-yl)-2-(3-hydroxynaphthalen-1-yl)-1H-indol-1-yl)acetamide], the Binding % result was “++ (++ indicates binding activity from 5% to 50%)”.
